Assay results from publication PMC11240139, “Exploring the antitumor potential of novel quinoline derivatives via tubulin polymerization inhibition in breast cancer; design, synthesis and molecular docking” (RSC Advances, 2024).

How the values were obtained:
CCRF-CEM (leukemia) = test: NCI-60 SRB cytotoxicity screen; format: cell-based; conditions: Homo sapiens, single dose 10 μM, read-out: growth inhibition (GI%)
HL-60(TB) (leukemia) = test: NCI-60 SRB cytotoxicity screen; format: cell-based; conditions: Homo sapiens, single dose 10 μM, read-out: growth inhibition (GI%)
K-562 (leukemia) = test: NCI-60 SRB cytotoxicity screen; format: cell-based; conditions: Homo sapiens; K-652 [sic], single dose 10 μM; read-out: growth inhibition (GI%)
MOLT-4 (leukemia) = test: NCI-60 SRB cytotoxicity screen; format: cell-based; conditions: Homo sapiens; MOLT-4, single dose 10 μM; read-out: growth inhibition (GI%)
RPMI-8226 (leukemia) = test: NCI-60 SRB cytotoxicity screen; format: cell-based; conditions: Homo sapiens; RPMI-8226, single dose 10 μM; read-out: growth inhibition (GI%)
[1] = tested on: A549/ATCC (non-small cell lung cancer); test: NCI-60 SRB cytotoxicity screen; format: cell-based; conditions: Homo sapiens, single dose 10 μM, read-out: growth inhibition (GI%)
[2] = tested on: EKVX (non-small cell lung cancer); test: NCI-60 SRB cytotoxicity screen; format: cell-based; conditions: Homo sapiens, single dose 10 μM, read-out: growth inhibition (GI%)
[3] = tested on: HOP-62 (non-small cell lung cancer); test: NCI-60 SRB cytotoxicity screen; format: cell-based; conditions: Homo sapiens; HOP-62, single dose 10 μM; read-out: growth inhibition (GI%)
[4] = tested on: NCI-H226 (non-small cell lung cancer); test: NCI-60 SRB cytotoxicity screen; format: cell-based; conditions: Homo sapiens; NCI-H226, single dose 10 μM; read-out: growth inhibition (GI%)
[5] = tested on: NCI-H23 (non-small cell lung cancer); test: NCI-60 SRB cytotoxicity screen; format: cell-based; conditions: Homo sapiens; NCI-H23, single dose 10 μM; read-out: growth inhibition (GI%)
[6] = tested on: NCI-H460 (non-small cell lung cancer); test: NCI-60 SRB cytotoxicity screen; format: cell-based; conditions: Homo sapiens; NCI-H460, single dose 10 μM; read-out: growth inhibition (GI%)
[7] = tested on: NCI-H522 (non-small cell lung cancer); test: NCI-60 SRB cytotoxicity screen; format: cell-based; conditions: Homo sapiens; NCI-H522, single dose 10 μM; read-out: growth inhibition (GI%)
HCT-15 (colon cancer) = test: NCI-60 SRB cytotoxicity screen; format: cell-based; conditions: Homo sapiens; HCT-15, single dose 10 μM; read-out: growth inhibition (GI%)
HT29 (colon cancer) = test: NCI-60 SRB cytotoxicity screen; format: cell-based; conditions: Homo sapiens, HT-29; HT29, single dose 10 μM; read-out: growth inhibition (GI%)
KM12 (colon cancer) = test: NCI-60 SRB cytotoxicity screen; format: cell-based; conditions: Homo sapiens; KM12, single dose 10 μM; read-out: growth inhibition (GI%)
SF-295 (CNS cancer) = test: NCI-60 SRB cytotoxicity screen; format: cell-based; conditions: Homo sapiens; SF-295, single dose 10 μM; read-out: growth inhibition (GI%)
SF-539 (CNS cancer) = test: NCI-60 SRB cytotoxicity screen; format: cell-based; conditions: Homo sapiens; SF-539, single dose 10 μM; read-out: growth inhibition (GI%)
SNB-75 (CNS cancer) = test: NCI-60 SRB cytotoxicity screen; format: cell-based; conditions: Homo sapiens, SNB-75, SNB-75, single dose 10 μM; read-out: growth inhibition (GI%)
MALME-3M (melanoma) = test: NCI-60 SRB cytotoxicity screen; format: cell-based; conditions: Homo sapiens, single dose 10 μM, read-out: growth inhibition (GI%)
SK-MEL-28 (melanoma) = test: NCI-60 SRB cytotoxicity screen; format: cell-based; conditions: Homo sapiens; SK-MEL-28, single dose 10 μM; read-out: growth inhibition (GI%)
UACC-257 (melanoma) = test: NCI-60 SRB cytotoxicity screen; format: cell-based; conditions: Homo sapiens; UACC-257, single dose 10 μM; read-out: growth inhibition (GI%)
UACC-62 (melanoma) = test: NCI-60 SRB cytotoxicity screen; format: cell-based; conditions: Homo sapiens; UACC-62, single dose 10 μM; read-out: growth inhibition (GI%)
IGROV1 (ovarian cancer) = test: NCI-60 SRB cytotoxicity screen; format: cell-based; conditions: Homo sapiens, IGROV-1; IGROV1, single dose 10 μM; read-out: growth inhibition (GI%)
OVCAR-8 (ovarian cancer) = test: NCI-60 SRB cytotoxicity screen; format: cell-based; conditions: Homo sapiens; OVCAR-8, single dose 10 μM; read-out: growth inhibition (GI%)
[8] = tested on: NCI/ADR-RES (ovarian cancer); test: NCI-60 SRB cytotoxicity screen; format: cell-based; conditions: Homo sapiens, single dose 10 μM, read-out: growth inhibition (GI%)
SK-OV-3 (ovarian cancer) = test: NCI-60 SRB cytotoxicity screen; format: cell-based; conditions: Homo sapiens; SK-OV-3, single dose 10 μM; read-out: growth inhibition (GI%)
786-0 (renal cancer) = test: NCI-60 SRB cytotoxicity screen; format: cell-based; conditions: Homo sapiens; 786-0, single dose 10 μM; read-out: growth inhibition (GI%)
A498 (renal cancer) = test: NCI-60 SRB cytotoxicity screen; format: cell-based; conditions: Homo sapiens; A498, single dose 10 μM; read-out: growth inhibition (GI%)
ACHN (renal cancer) = test: NCI-60 SRB cytotoxicity screen; format: cell-based; conditions: Homo sapiens, single dose 10 μM, read-out: growth inhibition (GI%)
UO-31 (renal cancer) = test: NCI-60 SRB cytotoxicity screen; format: cell-based; conditions: Homo sapiens; UO-31, single dose 10 μM; read-out: growth inhibition (GI%)
PC-3 (prostate cancer) = test: NCI-60 SRB cytotoxicity screen; format: cell-based; conditions: PC-3, single dose 10 μM; read-out: growth inhibition (GI%)
MCF7 (breast cancer) = test: NCI-60 SRB cytotoxicity screen; format: cell-based; conditions: Homo sapiens; MCF7, single dose 10 μM; read-out: growth inhibition (GI%)
[9] = tested on: MDA-MB-231/ATCC (breast cancer); test: NCI-60 SRB cytotoxicity screen; format: cell-based; conditions: Homo sapiens, MDA-MB-231, read-out: growth inhibition (GI%);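 further: growth inhibition in percent at a single 10 µM dose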
HS 578T (breast cancer) = test: NCI-60 SRB cytotoxicity screen; format: cell-based; conditions: Homo sapiens, single dose 10 μM, read-out: growth inhibition (GI%)
BT-549 (breast cancer) = test: NCI-60 SRB cytotoxicity screen; format: cell-based; conditions: Homo sapiens; BT-549, single dose 10 μM; read-out: growth inhibition (GI%)
T-47D (breast cancer) = test: NCI-60 SRB cytotoxicity screen; format: cell-based; conditions: Homo sapiens, T47D, single dose 10 μM, read-out: growth inhibition (GI%)

SMILES	inhibition at 10 µM (CCRF-CEM (leukemia))	inhibition at 10 µM (HL-60(TB) (leukemia))	inhibition at 10 µM (K-562 (leukemia))	inhibition at 10 µM (MOLT-4 (leukemia))	inhibition at 10 µM (RPMI-8226 (leukemia))	inhibition at 10 µM [1]	inhibition at 10 µM [2]	inhibition at 10 µM [3]	inhibition at 10 µM [4]	inhibition at 10 µM [5]	inhibition at 10 µM [6]	inhibition at 10 µM [7]	inhibition at 10 µM (HCT-15 (colon cancer))	inhibition at 10 µM (HT29 (colon cancer))	inhibition at 10 µM (KM12 (colon cancer))	inhibition at 10 µM (SF-295 (CNS cancer))	inhibition at 10 µM (SF-539 (CNS cancer))	inhibition at 10 µM (SNB-75 (CNS cancer))	inhibition at 10 µM (MALME-3M (melanoma))	inhibition at 10 µM (SK-MEL-28 (melanoma))	also measured
CCc1cccc2cc(-c3cc(-c4ccc(OC)cc4)[nH]c(=S)c3C#N)c(Cl)nc12 [Compound 5a, 4-(2-Chloro-8-ethylquinolin-3-yl)-6-(4-methoxyphenyl)-2-thioxo-1,2-dihydropyridine-3-carbonitrile]	< 10%	14.9%	28.8%	12.7%	15.7%	< 10%	10.3%	< 10%	15.9%	11.8%	< 10%	19.6%	< 10%	< 10%	< 10%	13.8%	< 10%	21.6%	< 10%	< 10%	inhibition at 10 µM (UACC-257 (melanoma)): < 10%; inhibition at 10 µM (UACC-62 (melanoma)): 20.5%; inhibition at 10 µM (IGROV1 (ovarian cancer)): 12.9%; inhibition at 10 µM (OVCAR-8 (ovarian cancer)): 10.1%; inhibition at 10 µM [8]: < 10%; inhibition at 10 µM (SK-OV-3 (ovarian cancer)): < 10%; inhibition at 10 µM (786-0 (renal cancer)): < 10%; inhibition at 10 µM (A498 (renal cancer)): < 10%; inhibition at 10 µM (ACHN (renal cancer)): < 10%; inhibition at 10 µM (UO-31 (renal cancer)): 19.7%; inhibition at 10 µM (PC-3 (prostate cancer)): < 10%; inhibition at 10 µM (MCF7 (breast cancer)): 20.8%; inhibition at 10 µM [9]: 18.1%; inhibition at 10 µM (HS 578T (breast cancer)): 19.8%; inhibition at 10 µM (BT-549 (breast cancer)): 20.4%; inhibition at 10 µM (T-47D (breast cancer)): 12.7%; melting point: 290 to 292 °C
CCc1cccc2cc(-c3cc(-c4ccc(OC)c(OC)c4)[nH]c(=O)c3C#N)c(Cl)nc12 [Compound 4b, 4-(2-Chloro-8-ethylquinolin-3-yl)-6-(3,4-dimethoxyphenyl)-2-oxo-1,2-dihydropyridine-3-carbonitrile]	< 10%	< 10%	20%	< 10%	< 10%	< 10%	14.2%	< 10%	< 10%	< 10%	< 10%	14.7%	< 10%	< 10%	< 10%	< 10%	< 10%	29.6%	< 10%	< 10%	inhibition at 10 µM (UACC-257 (melanoma)): < 10%; inhibition at 10 µM (UACC-62 (melanoma)): < 10%; inhibition at 10 µM (IGROV1 (ovarian cancer)): < 10%; inhibition at 10 µM (OVCAR-8 (ovarian cancer)): < 10%; inhibition at 10 µM [8]: < 10%; inhibition at 10 µM (SK-OV-3 (ovarian cancer)): < 10%; inhibition at 10 µM (786-0 (renal cancer)): < 10%; inhibition at 10 µM (A498 (renal cancer)): < 10%; inhibition at 10 µM (ACHN (renal cancer)): < 10%; inhibition at 10 µM (UO-31 (renal cancer)): < 10%; inhibition at 10 µM (PC-3 (prostate cancer)): < 10%; inhibition at 10 µM (MCF7 (breast cancer)): 11.3%; inhibition at 10 µM [9]: < 10%; inhibition at 10 µM (HS 578T (breast cancer)): 10.3%; inhibition at 10 µM (BT-549 (breast cancer)): < 10%; inhibition at 10 µM (T-47D (breast cancer)): 16.6%; melting point: 280 to 282 °C
CCc1cccc2cc(C3C=C(c4ccc(OC)c(OC)c4)NC(=S)N3)c(Cl)nc12 (stereo not drawn) [Compound 6b, 4-(2-Chloro-8-ethylquinolin-3-yl)-6-(3,4-dimethoxyphenyl)-3,4-dihydropyrimidine-2(1H)-thione]	11%	10.7%	10.5%	53.3%	36.1%	< 10%	< 10%	11%	15.4%	< 10%	< 10%	22.1%	< 10%	< 10%	< 10%	< 10%	< 10%	< 10%	< 10%	< 10%	inhibition at 10 µM (UACC-257 (melanoma)): < 10%; inhibition at 10 µM (UACC-62 (melanoma)): 10.3%; inhibition at 10 µM (IGROV1 (ovarian cancer)): < 10%; inhibition at 10 µM (OVCAR-8 (ovarian cancer)): < 10%; inhibition at 10 µM [8]: 11.1%; inhibition at 10 µM (SK-OV-3 (ovarian cancer)): < 10%; inhibition at 10 µM (786-0 (renal cancer)): < 10%; inhibition at 10 µM (A498 (renal cancer)): < 10%; inhibition at 10 µM (ACHN (renal cancer)): < 10%; inhibition at 10 µM (UO-31 (renal cancer)): 37.2%; inhibition at 10 µM (PC-3 (prostate cancer)): < 10%; inhibition at 10 µM (MCF7 (breast cancer)): 15.7%; inhibition at 10 µM [9]: < 10%; inhibition at 10 µM (HS 578T (breast cancer)): 12.9%; inhibition at 10 µM (BT-549 (breast cancer)): 12.8%; inhibition at 10 µM (T-47D (breast cancer)): 24.9%; melting point: 237 to 239 °C
